Data published in ChEMBL document CHEMBL1909046, “DrugMatrix in vitro pharmacology data”.

Key:
Endothelin-1 receptor = biological target: T1, Endothelin-1 receptor (Homo sapiens, UniProt P25101); assay type: cell membranes, CHO-K1, Membrane; settings: cho-k1; further: in other assays of this panel Not Active means under 50% inhibition at 10 µM
T1 sequence (P25101 whole entry): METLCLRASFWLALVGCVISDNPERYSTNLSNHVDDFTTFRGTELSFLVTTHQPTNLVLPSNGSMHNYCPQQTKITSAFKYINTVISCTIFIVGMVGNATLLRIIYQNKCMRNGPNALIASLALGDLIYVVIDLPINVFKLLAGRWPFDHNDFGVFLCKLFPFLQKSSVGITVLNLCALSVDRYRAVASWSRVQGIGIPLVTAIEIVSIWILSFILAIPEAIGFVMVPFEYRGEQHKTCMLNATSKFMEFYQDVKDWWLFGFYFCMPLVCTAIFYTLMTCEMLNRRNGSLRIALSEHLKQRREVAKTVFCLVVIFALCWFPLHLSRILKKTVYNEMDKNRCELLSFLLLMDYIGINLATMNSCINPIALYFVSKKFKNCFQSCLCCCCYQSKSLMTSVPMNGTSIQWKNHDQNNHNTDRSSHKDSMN

[1] = DRUGMATRIX: Glutamate, NMDA, Agonism radioligand binding (ligand: [3H] CGP-39653); assay type: cell membranes, Rattus norvegicus, Wistar, Cerebral cortex, Membrane; settings: Not Active = under 50% inhibition at 10 µM
Acetylcholinesterase = Acetylcholinesterase (Homo sapiens, UniProt P22303); assay: DRUGMATRIX: Acetylcholinesterase enzyme inhibition (substrate: acetylthiocholine); assay type: cell-based, HEK293; settings: hek293; Not Active = under 50% inhibition at 10 µM
[2] = biological target: T2, Cysteinyl leukotriene receptor 1 (Homo sapiens, UniProt Q9Y271); assay type: cell membranes, CHO-K1, Membrane; settings: cho-k1; further: in other assays of this panel Not Active means under 50% inhibition at 10 µM
T2 sequence (Q9Y271 whole entry): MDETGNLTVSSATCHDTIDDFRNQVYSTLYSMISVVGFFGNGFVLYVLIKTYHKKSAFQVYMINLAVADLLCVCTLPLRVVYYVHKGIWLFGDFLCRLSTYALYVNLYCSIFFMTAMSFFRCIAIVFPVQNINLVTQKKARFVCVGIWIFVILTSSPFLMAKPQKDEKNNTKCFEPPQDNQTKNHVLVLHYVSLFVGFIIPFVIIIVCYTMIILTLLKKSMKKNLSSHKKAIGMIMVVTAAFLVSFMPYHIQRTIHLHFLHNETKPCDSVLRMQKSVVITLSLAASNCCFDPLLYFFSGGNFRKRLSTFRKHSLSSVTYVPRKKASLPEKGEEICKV

Adenosine receptor A1 = biological target: T3, Adenosine receptor A1 (Homo sapiens, UniProt P30542); assay type: cell membranes, CHO, Membrane; settings: cho;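 further: radioligand binding assay at the adenosine A1 receptor, with DPCPX serving as the labelled ligand; in other assays of this panel Not Active means under 50% inhibition at 10 µM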
T3 sequence (P30542 whole entry): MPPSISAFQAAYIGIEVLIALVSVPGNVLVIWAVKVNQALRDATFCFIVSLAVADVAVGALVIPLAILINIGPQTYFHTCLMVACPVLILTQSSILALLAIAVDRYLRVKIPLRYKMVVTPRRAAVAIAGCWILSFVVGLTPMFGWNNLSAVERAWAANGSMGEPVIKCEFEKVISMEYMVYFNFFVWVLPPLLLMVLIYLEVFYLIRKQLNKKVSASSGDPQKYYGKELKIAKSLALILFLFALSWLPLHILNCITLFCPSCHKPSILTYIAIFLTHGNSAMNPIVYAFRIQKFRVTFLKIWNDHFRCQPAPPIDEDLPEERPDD

[3] = DRUGMATRIX: Glutamate, Kainate radioligand binding (ligand: [3H] Kainic acid); assay type: cell membranes, Rattus norvegicus, Wistar, Brain, Membrane; settings: Not Active = under 50% inhibition at 10 µM
[4] = DRUGMATRIX: Interleukin IL-1 radioligand binding (ligand: [125I] interleukin 1beta); assay type: cell membranes, Membrane; settings: nih3t3; Not Active = under 50% inhibition at 10 µM
[5] = biological target: cGMP-specific 3',5'-cyclic phosphodiesterase (Homo sapiens, UniProt O76074); assay: DRUGMATRIX: Phosphodiesterase PDE5 enzyme inhibition (substrate: [3H]cGMP + cGMP); assay type: tissue-based; settings: platelet; Not Active = under 50% inhibition at 10 µM
[6] = biological target: T4, 3-hydroxy-3-methylglutaryl-coenzyme A reductase (Homo sapiens, UniProt P04035); set-up: species or system Escherichia coli;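 further: enzyme inhibition assay of HMG-CoA reductase using radiolabeled [14C]HMG-CoA as substrate; in other assays of this panel Not Active means under 50% inhibition at 10 µM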
T4 sequence (P04035 whole entry): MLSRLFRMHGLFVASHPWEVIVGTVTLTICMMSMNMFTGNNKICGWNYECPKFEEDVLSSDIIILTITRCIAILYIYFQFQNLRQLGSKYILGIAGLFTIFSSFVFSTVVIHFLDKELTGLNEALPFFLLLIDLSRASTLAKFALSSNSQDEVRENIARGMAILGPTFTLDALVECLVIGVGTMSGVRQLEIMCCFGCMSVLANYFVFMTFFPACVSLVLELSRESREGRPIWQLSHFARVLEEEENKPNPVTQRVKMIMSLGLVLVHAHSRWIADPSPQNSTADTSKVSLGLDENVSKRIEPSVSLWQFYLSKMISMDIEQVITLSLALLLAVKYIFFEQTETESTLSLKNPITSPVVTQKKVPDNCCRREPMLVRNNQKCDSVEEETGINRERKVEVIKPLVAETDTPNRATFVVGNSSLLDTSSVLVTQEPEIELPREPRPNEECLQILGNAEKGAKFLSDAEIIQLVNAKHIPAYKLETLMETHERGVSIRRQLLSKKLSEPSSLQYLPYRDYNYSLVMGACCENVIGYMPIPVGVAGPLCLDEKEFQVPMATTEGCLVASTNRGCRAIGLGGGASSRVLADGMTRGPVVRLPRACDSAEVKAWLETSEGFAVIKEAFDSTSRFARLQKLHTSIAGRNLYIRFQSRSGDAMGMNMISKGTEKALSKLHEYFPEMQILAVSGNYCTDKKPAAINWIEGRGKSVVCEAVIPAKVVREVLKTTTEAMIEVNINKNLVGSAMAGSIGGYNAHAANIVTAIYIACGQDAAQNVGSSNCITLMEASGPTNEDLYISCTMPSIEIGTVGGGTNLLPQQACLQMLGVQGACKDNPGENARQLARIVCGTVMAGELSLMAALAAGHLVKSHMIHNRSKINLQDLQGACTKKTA

Sequence of Acetylcholinesterase (P22303 whole entry): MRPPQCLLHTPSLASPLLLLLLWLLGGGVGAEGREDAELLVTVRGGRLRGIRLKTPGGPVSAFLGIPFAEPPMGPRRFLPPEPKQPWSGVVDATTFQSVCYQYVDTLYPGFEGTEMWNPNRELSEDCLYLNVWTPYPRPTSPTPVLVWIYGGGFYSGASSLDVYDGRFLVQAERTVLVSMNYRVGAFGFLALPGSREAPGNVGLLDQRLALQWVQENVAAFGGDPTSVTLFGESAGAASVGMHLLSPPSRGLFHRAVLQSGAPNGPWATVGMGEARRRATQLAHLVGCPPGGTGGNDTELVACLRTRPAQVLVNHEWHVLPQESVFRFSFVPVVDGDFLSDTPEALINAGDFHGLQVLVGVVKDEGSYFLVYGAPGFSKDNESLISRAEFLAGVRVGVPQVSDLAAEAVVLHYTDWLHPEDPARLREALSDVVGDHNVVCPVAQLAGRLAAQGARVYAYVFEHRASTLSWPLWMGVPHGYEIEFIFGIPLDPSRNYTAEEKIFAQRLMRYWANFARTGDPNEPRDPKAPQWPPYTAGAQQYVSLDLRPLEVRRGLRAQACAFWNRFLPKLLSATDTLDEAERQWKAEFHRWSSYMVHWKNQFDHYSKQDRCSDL

C=C(C)C1(O)OC(=O)C=C1OC (stereo not drawn) [PENICILLIC ACID]
Not Active: IC50 (Endothelin-1 receptor) | IC50 [1] | Ki [1] | IC50 (Acetylcholinesterase) | IC50 [2] | IC50 (Adenosine receptor A1) | IC50 [3] | Ki [3] | IC50 [4] | Ki [4] | IC50 [5] | IC50 [6]

C[C@H](CS)C(=O)N1CCC[C@H]1C(=O)O [CAPTOPRIL]
Not Active: IC50 (Endothelin-1 receptor) | IC50 [1] | Ki [1] | IC50 (Acetylcholinesterase) | IC50 [2] | IC50 (Adenosine receptor A1) | IC50 [3] | Ki [3] | IC50 [4] | Ki [4] | IC50 [5] | IC50 [6]

C[C@H]1O[C@@H](O[C@H]2[C@@H](O)C[C@H](O[C@H]3[C@@H](O)C[C@H](O[C@H]4CC[C@@]5(C)[C@H](CC[C@@H]6[C@@H]5C[C@@H](O)[C@]5(C)[C@@H](C7=CC(=O)OC7)CC[C@]65O)C4)O[C@@H]3C)O[C@@H]2C)C[C@H](O)[C@@H]1O [DIGOXIN]
Not Active: IC50 (Endothelin-1 receptor) | IC50 [1] | Ki [1] | IC50 (Acetylcholinesterase) | IC50 [2] | IC50 (Adenosine receptor A1) | IC50 [3] | Ki [3] | IC50 [4] | Ki [4] | IC50 [5] | IC50 [6]

CN(C)CCCN1c2ccccc2Sc2ccc(Cl)cc21 [CHLORPROMAZINE]
Not Active: IC50 (Endothelin-1 receptor) | IC50 [1] | Ki [1] | IC50 (Acetylcholinesterase) | IC50 [2] | IC50 (Adenosine receptor A1) | IC50 [3] | Ki [3] | IC50 [4] | Ki [4] | IC50 [5] | IC50 [6]

CN(C)C(=O)Oc1cc(OC(=O)N(C)C)cc(C(O)CNC(C)(C)C)c1 (stereo not drawn) [BAMBUTEROL]
Not Active: IC50 (Endothelin-1 receptor) | IC50 [1] | Ki [1] | IC50 (Acetylcholinesterase) | IC50 [2] | IC50 (Adenosine receptor A1) | IC50 [3] | Ki [3] | IC50 [4] | Ki [4] | IC50 [5] | IC50 [6]

CC(C)[C@H]1C(=O)N2CCC[C@H]2[C@]2(O)O[C@](NC(=O)[C@@H]3C=C4c5cccc6[nH]cc(c56)C[C@H]4N(C)C3)(C(C)C)C(=O)N12 [ERGOCORNINE]
Not Active: IC50 (Endothelin-1 receptor) | IC50 [1] | Ki [1] | IC50 (Acetylcholinesterase) | IC50 [2] | IC50 (Adenosine receptor A1) | IC50 [3] | Ki [3] | IC50 [4] | Ki [4] | IC50 [5] | IC50 [6]

CN(C)CCCN1c2ccccc2Sc2ccccc21 [PROMAZINE]
Not Active: IC50 (Endothelin-1 receptor) | IC50 [1] | Ki [1] | IC50 (Acetylcholinesterase) | IC50 [2] | IC50 (Adenosine receptor A1) | IC50 [3] | Ki [3] | IC50 [4] | Ki [4] | IC50 [5] | IC50 [6]

C[C@](N)(Cc1ccc(O)c(O)c1)C(=O)O [METHYLDOPA]
Not Active: IC50 (Endothelin-1 receptor) | IC50 [1] | Ki [1] | IC50 (Acetylcholinesterase) | IC50 [2] | IC50 (Adenosine receptor A1) | IC50 [3] | Ki [3] | IC50 [4] | Ki [4] | IC50 [5] | IC50 [6]

CCOC(=O)C1=C(COCCN)NC(C)=C(C(=O)OC)C1c1ccccc1Cl (stereo not drawn) [AMLODIPINE]
Not Active: IC50 (Endothelin-1 receptor) | IC50 [1] | Ki [1] | IC50 (Acetylcholinesterase) | IC50 [2] | IC50 (Adenosine receptor A1) | IC50 [3] | Ki [3] | IC50 [4] | Ki [4] | IC50 [5] | IC50 [6]

LEAD (II) ACETATE
Not Active: IC50 (Endothelin-1 receptor) | Ki (Endothelin-1 receptor) | IC50 [1] | Ki [1] | IC50 (Acetylcholinesterase) | Ki (Acetylcholinesterase) | IC50 [2] | Ki [2] | IC50 (Adenosine receptor A1) | Ki (Adenosine receptor A1) | IC50 [3] | Ki [3] | IC50 [4] | Ki [4] | IC50 [5] | Ki [5] | IC50 [6] | Ki [6]

CC(O)CO (stereo not drawn) [PROPYLENE GLYCOL]
Not Active: IC50 (Endothelin-1 receptor) | IC50 [1] | Ki [1] | IC50 (Acetylcholinesterase) | IC50 [2] | IC50 (Adenosine receptor A1) | IC50 [3] | Ki [3] | IC50 [4] | Ki [4] | IC50 [5] | IC50 [6]
